This assay concerns IL-2 secretion by Jurkat T cells. The assay can be described thus: Inhibition of IL-2 secretion (PHA-stimulated Jurkat T cells, ELISA). Particulars: Homo sapiens, 20 to 24 hours. The format is cell-based. How it is done:
The CRAC channel modulatory activity of the compounds were thus evaluated by measuring the secretion of IL-2 by antigen stimulated T-cells in vitro. Alternatively, such activity can also be evaluated by assay methods known to one skilled in the art.
Inhibition of IL-2 secretion: Jurkat T cells were seeded at a density of 0.5 to 1 million cells per well in RPMI medium. Test compounds from this invention were added to the cells at different concentrations. This was followed by the addition of PHA, a T cell mitogen after 10 minutes. The cells were then incubated for 20 to 24 hours in a CO2 incubator at 37° C. After incubation with the compounds, cells were centrifuged; the supernatant was collected and processed for ELISA to quantitate the amount of IL-2 secreted. A commercial ELISA kit (R&D Systems, Inc. Minneapolis, Minn., USA) was used to estimate the IL-2 concentrations. Amount of IL-2 secreted by cells stimulated with PHA was considered as a 100% maximal signal and the decrease in amount of IL-2 secreted by cells treated with the test compounds was expressed as percent inhibition of the maximal signal. The dose response data was analyzed using 4-parametric sigmoidal dose response (variable slope) curve-fit.
On the technique in general: ELISA stands for enzyme-linked immunosorbent assay.

Results on 36 molecules are retold here after patent US9790231B2 (LUPIN LIMITED, priority 2013, dated 2017).

A word on the IC50: it is the concentration needed to halve the response being measured. The low end stands for greater potency, the high end for weaker potency.

A value given as a limit tells only on which side of the number the result lay.

The molecule `Cc1cc2c(cc1-c1ccc(NC(=O)c3c(F)cccc3F)cc1)OC(C)(C)CC2=O` [Example 1, 2,6-Difluoro-N-(4-(2,2,6-trimethyl-4-oxochroman-7-yl)phenyl)benzamide] displayed a 50% inhibitory concentration (IC50) of 25 to 50 nM.
`CCc1cc2c(cc1-c1ccc(NC(=O)c3c(F)cccc3F)cc1)OC(C)(C)CC2=O` [Example 2, N-(4-(6-Ethyl-2,2-dimethyl-4-oxochroman-7-yl)phenyl)-2,6-difluorobenzamide] registered a 50% inhibitory concentration (IC50) below 25 nM.
The figure for `Cc1cc2c(cc1-c1cnc(NC(=O)c3c(F)cccc3F)cn1)OC(C)(C)CC2=O` [Example 4, 2,6-Difluoro-N-(5-(2,2,6-trimethyl-4-oxochroman-7-yl)pyrazin-2-yl)benzamide] is below 25 nM.
The figure for `CCc1cc2c(cc1-c1cnc(NC(=O)c3c(F)cccc3F)cn1)OC(C)(C)CC2=O` [Example 5, N-(5-(6-Ethyl-2,2-dimethyl-4-oxochroman-7-yl)pyrazin-2-yl)-2,6-difluorobenzamide] is below 25 nM; for `Cc1cc2c(cc1-c1ccc(NC(=O)c3c(F)cccc3F)nc1)OC(C)(C)CC2=O` [Example 6] it is 25 to 50 nM; for `Cc1c(-c2cnc(NC(=O)c3c(F)cccc3F)cn2)ccc2c1OC(C)(C)CC2` [Example 7, 2,6-Difluoro-N-(5-(2,2,8-trimethylchroman-7-yl)pyrazin-2-yl)benzamide] it is 50 to 100 nM.
`Cc1cc2c(cc1-c1ccc(NC(=O)c3c(F)cccc3Cl)cc1)OC1(CCC1)CC2` [Example 8, 2-Chloro-6-fluoro-N-(4-(6-methylspiro[chroman-2,1′-cyclobutan]-7-yl)phenyl)benzamide] had an IC50 below 25 nM.
Molecule `Cc1cc2c(cc1-c1ccc(NC(=O)c3c(C)cccc3F)cc1)OC1(CCC1)CC2` [Example 9, 2-Fluoro-6-methyl-N-(4-(6-methylspiro[chroman-2,1′-cyclobutan]-7-yl)phenyl)benzamide] returned a concentration for half-maximal inhibition (IC50) of 25 to 50 nM.
The figure for `Cc1cc2c(cc1-c1ccc(NC(=O)c3c(C)cccc3F)cc1)OC1(CCC1)CC2=O` [Example 10, 2-Fluoro-6-methyl-N-(4-(6-methyl-4-oxospiro[chroman-2,1′-cyclobutan]-7-yl)phenyl)benzamide] is 25 to 50 nM; for `Cc1cc2c(cc1-c1ccc(NC(=O)c3c(F)cccc3Cl)cc1)OC1(CCC1)CC2=O` [Example 11, 2-Chloro-6-fluoro-N-(4-(6-methyl-4-oxospiro[chroman-2,1′-cyclobutan]-7-yl)phenyl)benzamide] it is 25 to 50 nM.
The figure for `Cc1cc2c(cc1-c1ccc(C(=O)Nc3c(F)cccc3F)cc1)OC1(CCC1)CC2=O` [Example 13, N-(2,6-Difluorophenyl)-4-(6-methyl-4-oxospiro[chroman-2,1′-cyclobutan]-7-yl)benzamide] is 25 to 50 nM.
The figure for `Cc1cc2c(cc1-c1ccc(NC(=O)c3c(F)cccc3F)cc1)OC1(CCC1)CC2=O` [Example 16, 2,6-Difluoro-N-(4-(6-methyl-4-oxospiro[chroman-2,1′-cyclobutan]-7-yl)phenyl)benzamide] is below 25 nM.
Molecule `Cc1cc2c(cc1-c1ccc(NC(=O)c3c(F)cccc3F)cc1)C(=O)CC1(CCC1)O2` [Example 17, 2,6-Difluoro-N-(4-(7-methyl-4-oxospiro[chroman-2,1′-cyclobutan]-6-yl)phenyl)benzamide] displayed a 50% inhibitory concentration (IC50) of 50 to 100 nM.
Take `Cc1cc2c(cc1-c1ccc(NC(=O)c3c(F)cccc3F)cc1)CCC1(CCC1)O2` [Example 18, 2,6-Difluoro-N-(4-(7-methylspiro[chroman-2,1′-cyclobutan]-6-yl)phenyl)benzamide]: the IC50 was 50 to 100 nM.
The figure for `Cc1c(-c2ccc(NC(=O)c3c(F)cccc3F)cc2)ccc2c1OC1(CCC1)CC2=O` [Example 19, 2,6-Difluoro-N-(4-(8-methyl-4-oxospiro[chroman-2,1′-cyclobutan]-7-yl)phenyl)benzamide] is 100 to 500 nM; for `CCc1cc2c(cc1-c1ccc(NC(=O)c3c(F)cccc3F)cc1)OC1(CCC1)CC2=O` [Example 20, N-(4-(6-Ethyl-4-oxospiro[chroman-2,1′-cyclobutan]-7-yl)phenyl)-2,6-difluorobenzamide] it is below 25 nM; for `Cc1cc2c(cc1-c1ccc(NCc3c(F)cccc3F)cc1)OC1(CCC1)CC2=O` [Example 21, 7-(4-((2,6-Difluorobenzyl)amino)phenyl)-6-methylspiro[chroman-2,1′-cyclobutan]-4-one] it is 25 to 50 nM.
In turn, `Cc1cc2c(cc1-c1ccc(NC(=O)c3c(F)cccc3F)cc1)OC1(CCC1)CC2` [Example 22, 2,6-Difluoro-N-(4-(6-methylspiro[chroman-2,1′-cyclobutan]-7-yl)phenyl)benzamide] returned an IC50 below 25 nM.
`Cc1c(-c2ccc(NC(=O)c3c(F)cccc3F)cc2)ccc2c1OC1(CCC1)CC2` [Example 23, 2,6-Difluoro-N-(4-(8-methylspiro[chroman-2,1′-cyclobutan]-7-yl)phenyl)benzamide] registered a half-inhibitory concentration (IC50) of 50 to 100 nM.
The figure for `CCc1cc2c(cc1-c1ccc(NC(=O)c3c(F)cccc3F)cc1)OC1(CCC1)CC2` [Example 24, N-(4-(6-Ethylspiro[chroman-2,1′-cyclobutan]-7-yl)phenyl)-2,6-difluorobenzamide] is below 25 nM; for `Cc1cc2c(cc1-c1ccc(NC(=O)c3c(F)cccc3F)cn1)OC(C)(C)CC2=O` [Example 27, 2,6-Difluoro-N-(6-(2,2,6-trimethyl-4-oxochroman-7-yl)pyridin-3-yl)benzamide] it is 25 to 50 nM; for `Cc1cc2c(cc1-c1ccc(NCc3c(F)cccc3F)cc1)OC(C)(C)CC2=O` [Example 33, 7-(4-((2,6-Difluorobenzyl)amino)phenyl)-2,2,6-trimethylchroman-4-one] it is below 25 nM.
`Cc1cc2c(cc1-c1ccc(NCc3c(F)cccc3F)nc1)OC(C)(C)CC2=O` [Example 35, 7-(6-((2,6-Difluorobenzyl)amino)pyridin-3-yl)-2,2,6-trimethylchroman-4-one] came in with a 50% inhibitory concentration (IC50) below 25 nM.
As for `Cc1cc2c(cc1-c1cnc(NC(=O)c3c(F)cccc3F)cn1)OC1(CCC1)CC2=O` [Example 36, 2,6-Difluoro-N-(5-(6-methyl-4-oxospiro[chroman-2,1′-cyclobutan]-7-yl)pyrazin-2-yl)benzamide], the concentration for half-maximal inhibition (IC50) was below 25 nM.
The figure for `Cc1cc2c(cc1-c1ccc(NCc3c(F)cccc3F)nc1)OC1(CCC1)CC2=O` [Example 39, 7-(6-((2,6-Difluorobenzyl)amino)pyridin-3-yl)-6-methylspiro[chroman-2,1′-cyclobutan]-4-one] is below 25 nM; for `CCc1cc2c(cc1-c1cnc(NC(=O)c3c(F)cccc3F)cn1)OC1(CCC1)CC2=O` [Example 41, N-(5-(6-Ethyl-4-oxospiro[chroman-2,1′-cyclobutan]-7-yl)pyrazin-2-yl)-2,6-difluorobenzamide] it is 50 to 100 nM.
The figure for `CCc1cc2c(cc1-c1ccc(C(=O)Nc3c(F)cncc3F)cc1)OC(C)(C)CC2=O` [Example 42, N-(3,5-Difluoropyridin-4-yl)-4-(6-ethyl-2,2-dimethyl-4-oxochroman-7-yl)benzamide] is below 25 nM; for `Cc1cc2c(cc1-c1ccc(C(=O)Nc3c(F)cncc3F)cc1)OC(C)(C)CC2=O` [Example 43, N-(3,5-Difluoropyridin-4-yl)-4-(2,2,6-trimethyl-4-oxochroman-7-yl)benzamide] it is 100 to 500 nM.
`COC(=O)C1(C)CC(=O)c2cc(C)c(-c3cnc(NC(=O)c4c(F)cccc4F)cn3)cc2O1` (stereo not drawn) [Example 45, Methyl 7-(5-(2,6-difluorobenzamido)pyrazin-2-yl)-2,6-dimethyl-4-oxochroman-2-carboxylate]: the half-maximal inhibitory concentration (IC50) was in the range of 100 to 500 nM.
The figure for `CCc1cc2c(cc1-c1ccc(NC(=O)c3c(F)cccc3F)cc1)OC(C)(C)CC2` [Example 48b, N-(4-(6-Ethyl-2,2-dimethylchroman-7-yl)phenyl)-2,6-difluorobenzamide] is below 25 nM; for `CCc1cc2c(cc1-c1ccc(C(=O)Nc3c(F)cncc3F)cc1)OC(C)(C)CC2` [Example 49, N-(3,5-Difluoropyridin-4-yl)-4-(6-ethyl-2,2-dimethylchroman-7-yl)benzamide] it is below 25 nM; for `Cc1cc2c(cc1-c1ccc(C(=O)Nc3c(F)cncc3F)cc1)OC(C)(C)CC2` [Example 50, N-(3,5-Difluoropyridin-4-yl)-4-(2,2,6-trimethylchroman-7-yl)benzamide] it is below 25 nM.
Consider `Cc1cc2c(cc1-c1ccc(NC(=O)c3c(F)cccc3F)cc1)OC(C)(CO)CC2=O` (stereo not drawn) [Example 51, 2,6-Difluoro-N-(4-(2-(hydroxymethyl)-2,6-dimethyl-4-oxochroman-7-yl)phenyl)benzamide], for which the IC50 is below 25 nM.
The figure for `Cc1cc2c(cc1-c1ccc(NC(=O)c3c(F)cccc3F)nc1)OC(C)(CO)CC2=O` (stereo not drawn) [Example 54, 2,6-Difluoro-N-(5-(2-(hydroxymethyl)-2,6-dimethyl-4-oxochroman-7-yl)pyridin-2-yl)benzamide] is 50 to 100 nM.
`CCc1cc2c(cc1-c1ccc(NC(=O)c3c(F)cccc3F)cc1)OC(C)(CO)CC2=O` (stereo not drawn) [Example 58, N-(4-(6-Ethyl-2-(hydroxymethyl)-2-methyl-4-oxochroman-7-yl)phenyl)-2,6-difluorobenzamide] yielded a half-maximal inhibitory concentration (IC50) of 50 to 100 nM.
Molecule `Cc1c(-c2ccc(NC(=O)c3c(F)cccc3F)cc2)ccc2c1OC(C)(C)CC2` [Example 59, 2,6-Difluoro-N-(4-(2,2,8-trimethylchroman-7-yl)phenyl)benzamide] came in with an IC50 below 25 nM.
